Read-outs that look alike come from different tables or passages of the source.
Assays:
[1] = target: T1, lysyl oxidase (Bos taurus, UniProt P33072); test: Lysyl oxidase peroxidase-coupled fluorescence assay of n-hexylamine oxidation; format: biochemical, bovine
T1 construct: Lysyl oxidase was purified from bovine aorta as previously described; from tissue; host or cells: bovine aorta
T1 sequence (P33072 170-418): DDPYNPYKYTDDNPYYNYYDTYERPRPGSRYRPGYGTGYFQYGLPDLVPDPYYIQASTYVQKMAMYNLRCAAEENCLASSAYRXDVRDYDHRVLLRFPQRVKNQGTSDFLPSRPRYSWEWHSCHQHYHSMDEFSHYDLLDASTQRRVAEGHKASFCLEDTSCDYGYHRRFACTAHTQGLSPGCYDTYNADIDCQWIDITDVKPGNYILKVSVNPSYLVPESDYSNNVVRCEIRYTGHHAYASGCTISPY
Protocol: Lysyl oxidase was purified from bovine aorta as previously described. [Williams, M. A. and H. M. Kagan, Anal. Biochem. 113:336 (1985)].
(§1) The purified lysyl oxidase enzyme was also assayed against alkyl monoamines and alkyl diamines using the reported peroxidase-coupled fluorescence method at 55° C. [Trackman et al., Anal. Biochem. 113:336-342 (1981)]. The reaction mixtures contained 40 ug horseradish peroxidase, 0.7 mM homovanillic acid, 1.2M urea, 0.02M potassium phosphate/borate buffer, at pH 8 (or at varying values of pH as indicated) in a total volume of 2 ml. Assay solutions were adjusted to an ionic strength of 0.04 using potassium chloride. Lysyl oxidase was then added to initiate the reaction. Fluorescence was continuously monitored at an excitation wavelength of 315 nm and an emission wavelength of 425 nm. The enzyme-dependent production of hydrogen peroxide was quantified by reference to standard plots relating nanomoles of hydrogen peroxide added to fluorescence units. […] Kinetic constants were derived from initial rate assay data by using the Fortan program of Cleland [Meth. Enzymol. 63:103-138 (1979)] which determines Vmax and Km values from data of Michaelis-Menten experiments using a least squares fitting procedure applied to the Michaelis-Menten equation.
The pH-dependency of the Vmax for the oxidation of a series of diamines and monoamine substrates by lysyl oxidase was first explored.
(§2) Accordingly cis and trans isomers of DACH were used to probe this possibility.

[2] = target: T1, lysyl oxidase; test: Irreversible, time-dependent inactivation of lysyl oxidase (preincubation, then dialysis or dilution into the assay); format: biochemical, bovine; conditions: for rate of inactivation under anaerobic conditions: anaerobic / nitrogen-purged
Protocol: as §2
In addition, the time-dependency for the expression of irreversible inhibition was assessed by initially preincubating lysyl oxidase at 37° in the presence or absence of various concentrations of cis-DACH; and then diluting aliquots of these individual reaction mixtures into peroxidase-coupled assays for n-hexylamine oxidation - thereby reducing the cis-DACH concentrations to non-inhibitory levels within the lysyl oxidase assays. […] The possibility that the inactivation derived from the removal of the metal ion cofactor of the enzyme by the cyclic diamine was then assessed by atomic absorption spectroscopy.

[3] = target: T1, lysyl oxidase; test: Release of 3H+ from [1,2-3H]DACH by lysyl oxidase; format: biochemical, bovine; conditions: for Ratio ^3 H^+/Oxidant / ^3 H^+ Released: 1 mM [^3 H]DACH; for ^3 H^+ Released: pH 8, 37°C, maximum level
Protocol: ^a/ The indicated amounts of PQQ or functional active sites of lysyl
oxidase were incubated with [^3 H]DACH (1 mM; 0.13 mCi/mmole) in 50 m
sodium borate, pH 8, at 37°C. and aliquots of the incubation
mixture were removed at intervals, distilled in vacuo and the isolated
[^3 H]H2 O was quantified by liquid scintillation spectrometry.
The values shown are the maximum levels accumulated in these assays and
are corrected for minor background
effects in the absence of oxidant.
Toward similar ends [1,2-^3 H]DACH was synthesized and used to determine whether the reaction of this diamine with limiting quantities of free PQQ or of lysyl oxidase would result in the release of ^3 H^+ --a result to be expected if carbon 1 and/or carbon 2 positions of cis-DACH were oxidized in these reaction mixtures. As provided by Table E2, approximately 2 moles of ^3 H^+ were released per mole of each limiting reactant; with a maximum of 2.30 moles of ^3 H^+ released per mole of PQQ and a maximum of 1.88 moles of ^3 H^+ released per mole of functional active site in lysyl oxidase. While the synthetic, tritiated product used in these studies consisted of a mixture of the cis and trans isomers, the concentration of [^3 H]DACH incubated with the lysyl oxidase enzyme was sufficiently low to restrict the reaction primarily to the cis isomer--based upon the previous assessment of the relative potency of these compounds as inhibitors of lysyl oxidase or as perturbants of the spectrum of PQQ.

[4] = target: T1, lysyl oxidase; test: Perturbation of the absorption spectrum of lysyl oxidase; parameters: species or system bovine
Protocol: Absorption spectra were recorded in 1 cm cuvettes with a Hewlett Packard Diode Array spectrophotometer, with temperatures controlled by circulating water through the cuvette holder. Mixtures were made anaerobic by purging buffers and stock solutions in rubber-capped tubes with high purity nitrogen for 15 min, and then injecting aliquots of the solutions into a 1 cm semi-micro cuvette fitted with a rubber septum and flushed with nitrogen before addition of reagents. Once in the capped cuvette, each solution was further exposed to a stream of nitrogen passed over the surface of the solution and out of the capped cuvette through 21 guage needles for 5 min. just prior to spectral recording. Each perturbation described was reproducible in three or more trials.
Increased absorption occurs in accordance with an increase in optical density occurring in the region of 250 nm; a broad peak also develops with a maximum absorbance at 350-355 nm upon incubation of 47 uM cis-DACH with 4.25 uM of functional active sites in lysyl oxidase as shown in FIG. 6B. The absorption peak at 350-355 nm correlates quite well with a peak generated at the same position in the spectrum of PQQ by its interaction with cis-DACH.

[5] = target: T1, lysyl oxidase; test: Protein-bound copper of lysyl oxidase by atomic absorption spectroscopy; parameters: species or system bovine; conditions: 1 mM, then dialyzed against metal-free buffer
Protocol: In addition, the time-dependency for the expression of irreversible inhibition was assessed by initially preincubating lysyl oxidase at 37° in the presence or absence of various concentrations of cis-DACH; and then diluting aliquots of these individual reaction mixtures into peroxidase-coupled assays for n-hexylamine oxidation - thereby reducing the cis-DACH concentrations to non-inhibitory levels within the lysyl oxidase assays. […] This is illustrated by FIG. 4. […] The possibility that the inactivation derived from the removal of the metal ion cofactor of the enzyme by the cyclic diamine was then assessed by atomic absorption spectroscopy. This method of analysis yielded the same values for protein-bound copper in aliquots of purified lysyl oxidase which had been incubated in either the presence or absence of 1 mM cis-DACH and then dialyzed extensively against metal-free buffer.

[6] = target: T1, lysyl oxidase; test: Release of H2O2 on oxidation of cis-DACH by lysyl oxidase; format: biochemical, bovine; conditions: for Ratio H2O2/Oxidant / H2O2 Released: 1 mM cis-DACH; for H2O2 Released: maximal release
Protocol: as §1
In view of the apparent inhibiting effect of anaerobic conditions on the induction by cis-DACH of changes in the spectra of PQQ and lysyl oxidase, the possibility was evaluated that oxidation of the diamine substrate analogue may be involved in the development of irreversible inhibition of lysyl oxidase. […] This argues against significant catalytic turnover with the cyclic diamine. Nevertheless, as illustrated by FIG. 7, the development of irreversible inhibition was strongly dependent upon the presence of oxygen since the rate of inactivation was negligible under anaerobic conditions.
Toward that end, evidence was sought for the release of H2 O2 upon the reaction of cis-DACH with limiting amounts of PQQ or of relatively large quantities (although limiting relative to cis-DACH) of pure lysyl oxidase. As given by Table E1, hydrogen peroxide formation was seen under these conditions with the maximum levels of H2 O2 formed essentially equal to the amount of the limiting reactant in both cases, i.e., free PQQ or lysyl oxidase, respectively.
^a/ Hydrogen peroxide as assayed in the peroxidasecoupled fluorescenc
assay using 1 mM cisDACH as the sole source of amine substrate and
containing lysyl oxidase or PQQ at the indicated amounts. Incubations wer
continued until the release of H2 O2 was maximal in each case.
The quantity of lysyl oxidase used is expressed in the Table in terms of
functional active site content. The concentration of PQQ was determined
using 19,122 as the molar extinction coefficent.

[7] = n-hexylamine substrate, competitive, read-out: KI, competitive inhibition of lysyl oxidase activity against n-hexylamine
[8] = lysyl oxidase as oxidant, mean of 3 amounts

## N[C@@H]1CCCC[C@H]1N (relative stereo) [trans-DACH, 1,2-Diaminocyclohexane, reference compound]
[1]; n-hexylamine oxidation, extrapolated, read-out: (extrapolated) I50 in assays of n-hexylamine oxidation
  IC50: > 10000 µM
[1]; n-hexylamine oxidation, relative to cis-DACH
  fold less inhibitory than cis-DACH: at least 10,000 fold

## NCCN [EDA, Ethylenediamine]
[2]
  rate of inactivation under anaerobic conditions: markedly reduced
[1]; [7]
  Ki: 2 µM

## [3H]C1(N)CCCCC1([3H])N (centres unmarked) [[1,2-^3 H]DACH, [1,2-^3 H]-1,2-diaminocyclohexane]
[3]; 0.50 nanomoles lysyl oxidase active sites
  Ratio ^3 H^+/Oxidant: 1.96
[3]; 0.50 nanomoles lysyl oxidase functional active sites
  ^3 H^+ Released: 0.98 Nanomoles
[3]; 1.24 nanomoles lysyl oxidase active sites
  Ratio ^3 H^+/Oxidant: 1.80
[3]; 1.24 nanomoles lysyl oxidase functional active sites
  ^3 H^+ Released: 2.23 Nanomoles
[3]; 3.72 nanomoles lysyl oxidase active sites
  Ratio ^3 H^+/Oxidant: 1.87
[3]; 3.72 nanomoles lysyl oxidase functional active sites
  ^3 H^+ Released: 6.95 Nanomoles
[3]; limiting lysyl oxidase
  ^3 H^+ released per mole of functional active site in lysyl oxidase: 1.88 moles of ^3 H^+ released per mole of functional active site
[3]; [8]
  Ratio ^3 H^+/Oxidant, mean: 1.88 ± 0.07

## N[C@@H]1CCCC[C@@H]1N [cis-DACH, 1,2-Diaminocyclohexane]
[2]
  rate of inactivation under anaerobic conditions: negligible
[2]; enzyme preincubated with 0.05M cis-DACH at 37° for 15 min, then dialyzed
  reversibility of inhibition: irreversible
[2]; preincubation at 37°, secondary reciprocal plot, read-out: limiting apparent first order rate constant for inactivation, Kinact (converted)
  kinact: 0.3 s⁻¹
[4]; aerobic, 47 uM cis-DACH with 4.25 uM functional active sites
  perturbation of the lysyl oxidase spectrum: perturbed
[4]; anaerobic
  perturbation of the lysyl oxidase spectrum under anaerobic conditions: not altered significantly
[5]
  removal of copper from the active site: did not remove copper
[1]; as restated in the summary, read-out: KI
  Ki: 0.38 µM
[1]; n-hexylamine oxidation, read-out: I50 in assays of n-hexylamine oxidation
  IC50: 1.5 µM
[1]; [7]
  Ki: 0.38 µM
[6]; 0.71 nanomoles lysyl oxidase active sites
  Ratio H2O2/Oxidant: 1.40
[6]; 0.71 nanomoles lysyl oxidase functional active sites
  H2O2 Released: 1.0 nmol
[6]; 1.78 nanomoles lysyl oxidase active sites
  Ratio H2O2/Oxidant: 0.96
[6]; 1.78 nanomoles lysyl oxidase functional active sites
  H2O2 Released: 1.70 nmol
[6]; 2-4 ug lysyl oxidase, limit of sensitivity ca. 1 nanomole of H2O2
  formation of H2O2 with catalytic quantities of lysyl oxidase: not detectable
[6]; 2.20 nanomoles lysyl oxidase active sites
  Ratio H2O2/Oxidant: 0.69
[6]; 2.20 nanomoles lysyl oxidase functional active sites
  H2O2 Released: 1.52 nmol
[6]; [8]
  Ratio H2O2/Oxidant, mean: 1.02 ± 0.29

From patent publication US4997854A, “Anti-fibrotic agents and methods for inhibiting the activity of lysyl oxidase in-situ using adjacently positioned diamine analogue substrates” (Trustees of Boston University, priority 1989, dated 1991)
